Experimental data taken from patent US11312676B2, “Small molecule stimulators of steroid receptor coactivator proteins and their use in the treatment of cancer” (BAYLOR COLLEGE OF MEDICINE, priority 2014, dated 2022).

Columns and labels:
SRC-2 = molecular target: T1, SRC-2 (Homo sapiens, UniProt Q15596); test: Gal4 luciferase reporter assay (pBIND-SRC-2 + pG5-LUC) in HeLa cells; type: cell-based; conditions: 24-hour treatment, 5-8 μM, maximum over SRC-1/-2/-3
T1 construct: expressed in transfected cells; host or cells: HeLa
Method: (§1) The constructs expressing the Gal4 responsive luciferase reporter (pG5-luc), Gal4 DBD fusion with SRC-1, […] (pBIND-SRC-1/-2/-3), MMP2 or MMP13 promoter driven luciferase reporter (MMP2-luc, MMP13-luc) were prepared. Twenty-four hours before transfection, HeLa cells were plated in 24-well dishes. The indicated expression plasmids were transfected into cells using Lipofectamine 2000 according to the manufacturer's instructions.
(§2) After various compound treatments, cells were lysed in luciferase lysis buffer and assayed for luciferase activity using the ONE-Glo luciferase assay system (Promega, Madison, Wis.). All luciferase activities were normalized to protein concentration determined by Bradford assay (Bio-Rad, Hercules, Calif.).

PGC-1α = test: Gal4-PGC-1α + pG5-LUC luciferase assay in HeLa cells; type: cell-based; conditions: 24 hours, 2-10 μM
VP16 = molecular target: T2, VP16 (Human herpesvirus 1, UniProt P06492); test: Gal4-VP16 + pG5-LUC luciferase assay in HeLa cells; type: cell-based; conditions: 24 hours, only at higher compound concentrations
T2 construct: expressed in transfected cells; host or cells: HeLa

MMP2 promoter = test: MMP2-luc reporter with SRC-3 expression vector in HeLa cells; type: cell-based; conditions: 24 hours
Method: as §1, §2

MMP13 promoter = test: MMP13-luc reporter with SRC-3 expression vector in HeLa cells; type: cell-based; conditions: 24 hours
Method: as §1, §2

MCF-7 (breast) cells = test: MTS cell viability assay, MCF-7; type: cell-based; conditions: MCF-7, 48 hours
Method: (§3) Cell lines were maintained in DMEM (HeLa, MCF-7, HepG2), RPMI 1640 (H1299), or DMEM/F12 (PC-3) supplemented with 10% fetal calf serum, penicillin and streptomycin (100 U/ml). Primary mouse hepatocytes were isolated and cultured. Mouse embryonic fibroblasts (MEF) were cultured in DMEM. All cells were maintained at 37° C. under 5% CO2.
(§4) Cells were seeded in 96-well plates and allowed to reach 70% to 80% confluence. After indicated compound treatments, relative numbers of viable cells were measured by MTS assay using the Cell Titer 96 Aqueous One Solution Cell Proliferation Assay (Promega).

PC-3 (prostate) cells = test: MTS cell viability assay, PC-3; type: cell-based; conditions: PC-3, 48 hours
Method: as §3, §4

H1299 (lung) cells = test: MTS cell viability assay, H1299; type: cell-based; conditions: H1299, 48 hours
Method: as §3, §4

HepG2 (liver) cells = test: MTS cell viability assay, HepG2; type: cell-based; conditions: HepG2, 48 hours
Method: as §3, §4

[1] = system: mouse primary hepatocytes; test: MTS cell viability assay, mouse primary hepatocytes; type: cell-based; conditions: 48 hours
Method: as §3, §4

MEF cells = test: MTS cell viability assay, mouse embryonic fibroblasts; type: cell-based; conditions: 48 hours
Method: as §3, §4

[2] = system: MCF-7 breast cancer xenograft; test: MCF-7 xenograft tumor model; type: in vivo; conditions: 20 mg/kg i.p. three times a week
Method: Twenty 6-8 week-old athymic nude female mice were obtained from Harlan. Two days before cancer cell injection, one estradiol pellet was embedded under the skin for each mouse and a new pellet was added twice at a one month interval. Following this, 1×10^6 MCF-7 cells […] mixed with equal volume of growth factor reduced matrigel (BD Biosciences) were injected into the fat pad of each of the 2nd pair mammary gland without clearing. The MCB-613 treatment which lasted for seven weeks was started approximately seven weeks after the cell injection when tumor sizes reached above 5 mm in diameter. Ten mice received MCB-613 (20 mg/kg) in saline by i.p. injection, whereas the control group contained 10 mice which received saline only. The compound was injected three times a week. The mice were weighed once a week and tumors were measured twice a week during the treatment period.
To further evaluate the anti-cancer potential of MCB-613, a MCF-7 breast cancer mouse xenograft model was employed to assess the tumor suppressive effects of MCB-613 in vivo. Tumors were established in athymic nude mice seven weeks after injection of MCF-7 cells into […] mammary fat pads. An MCB-613 treated group (n=10) received i.p. injection of the compound (20 mg/kg) three times a week, while a control group (n=10) was injected with a saline vehicle.

HeLa cells [3] = test: MTS cell viability assay, HeLa cells; type: cell-based; conditions: SRC-3 KO vs WT HeLa, 24 hours
HeLa cells [4] = test: Cytoplasmic vacuolization of cancer cells; type: cell-based; conditions: HeLa, MCF-7 or MDA-MB-231 cells
MMP13 expression = test: qRT-PCR of endogenous MMP13 in MDA-MB-231 cells; type: cell-based; conditions: 24 hours
SRC-1 = SRC-1 (Homo sapiens, UniProt Q15788); test: High throughput primary screen, HEK293 cells with pG5-luc and pBIND-SRC-1; type: cell-based; set-up: expressed in transfected cells; conditions: among 359,484 compounds
From the text: In a series of high throughput screens originally designed to identify SRC small molecule inhibitors, HEK293 cells transfected with a Gal4 responsive luciferase reporter (pG5-luc) and a construct encoding SRC-1, SRC-2 or SRC-3 fused with the DNA binding domain of Gal4 (pBIND-SRC-1, pBIND-SRC-2 or pBIND-SRC-3) were exposed to treatments with 359,484 compounds from a MLPCN chemical library (PubChem AID:588362, AID:652008 and AID:588354).

T2 sequence (P06492 413-490): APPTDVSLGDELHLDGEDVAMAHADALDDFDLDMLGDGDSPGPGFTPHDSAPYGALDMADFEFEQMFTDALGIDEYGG
Chain of SRC-1 (Q15788 whole entry, the tested form may be a part): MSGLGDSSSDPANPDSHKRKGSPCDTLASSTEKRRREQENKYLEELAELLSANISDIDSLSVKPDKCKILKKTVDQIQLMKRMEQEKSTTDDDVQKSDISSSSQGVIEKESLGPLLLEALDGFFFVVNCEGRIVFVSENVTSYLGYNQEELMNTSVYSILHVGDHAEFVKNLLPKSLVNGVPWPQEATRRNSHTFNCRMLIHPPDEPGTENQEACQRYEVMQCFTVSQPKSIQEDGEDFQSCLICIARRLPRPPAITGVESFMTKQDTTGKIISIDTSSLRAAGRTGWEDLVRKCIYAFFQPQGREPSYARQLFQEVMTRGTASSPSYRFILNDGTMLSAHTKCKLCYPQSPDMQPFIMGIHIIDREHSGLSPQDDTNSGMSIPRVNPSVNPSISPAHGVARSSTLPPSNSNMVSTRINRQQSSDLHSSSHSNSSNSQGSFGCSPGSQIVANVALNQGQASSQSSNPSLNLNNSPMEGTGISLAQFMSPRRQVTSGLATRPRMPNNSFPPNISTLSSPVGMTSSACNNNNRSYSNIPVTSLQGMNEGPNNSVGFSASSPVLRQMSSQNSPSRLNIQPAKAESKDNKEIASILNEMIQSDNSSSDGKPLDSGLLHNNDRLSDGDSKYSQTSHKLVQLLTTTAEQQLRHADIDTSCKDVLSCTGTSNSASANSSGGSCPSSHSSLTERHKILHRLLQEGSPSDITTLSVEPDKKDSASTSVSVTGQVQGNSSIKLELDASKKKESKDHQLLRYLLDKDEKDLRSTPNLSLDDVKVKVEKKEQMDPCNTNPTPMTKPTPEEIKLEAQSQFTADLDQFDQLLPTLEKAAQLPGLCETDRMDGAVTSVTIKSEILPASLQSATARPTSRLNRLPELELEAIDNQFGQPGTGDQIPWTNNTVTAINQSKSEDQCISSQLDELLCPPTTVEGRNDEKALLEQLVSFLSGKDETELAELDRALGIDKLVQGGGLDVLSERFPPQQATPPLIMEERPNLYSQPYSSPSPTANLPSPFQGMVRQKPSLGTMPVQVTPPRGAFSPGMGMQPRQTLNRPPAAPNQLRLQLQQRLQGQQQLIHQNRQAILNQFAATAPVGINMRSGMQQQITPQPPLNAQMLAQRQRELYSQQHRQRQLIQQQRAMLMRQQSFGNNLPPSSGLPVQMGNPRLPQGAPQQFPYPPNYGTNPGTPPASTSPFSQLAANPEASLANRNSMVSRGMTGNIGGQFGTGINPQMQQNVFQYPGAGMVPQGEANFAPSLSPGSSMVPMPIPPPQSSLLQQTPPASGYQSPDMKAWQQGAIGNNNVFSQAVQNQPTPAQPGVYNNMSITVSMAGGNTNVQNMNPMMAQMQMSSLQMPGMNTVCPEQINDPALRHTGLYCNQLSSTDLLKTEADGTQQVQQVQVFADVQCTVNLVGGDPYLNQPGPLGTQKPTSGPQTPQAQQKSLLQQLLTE
T1 sequence (Q15596 whole entry, the tested form may be a part): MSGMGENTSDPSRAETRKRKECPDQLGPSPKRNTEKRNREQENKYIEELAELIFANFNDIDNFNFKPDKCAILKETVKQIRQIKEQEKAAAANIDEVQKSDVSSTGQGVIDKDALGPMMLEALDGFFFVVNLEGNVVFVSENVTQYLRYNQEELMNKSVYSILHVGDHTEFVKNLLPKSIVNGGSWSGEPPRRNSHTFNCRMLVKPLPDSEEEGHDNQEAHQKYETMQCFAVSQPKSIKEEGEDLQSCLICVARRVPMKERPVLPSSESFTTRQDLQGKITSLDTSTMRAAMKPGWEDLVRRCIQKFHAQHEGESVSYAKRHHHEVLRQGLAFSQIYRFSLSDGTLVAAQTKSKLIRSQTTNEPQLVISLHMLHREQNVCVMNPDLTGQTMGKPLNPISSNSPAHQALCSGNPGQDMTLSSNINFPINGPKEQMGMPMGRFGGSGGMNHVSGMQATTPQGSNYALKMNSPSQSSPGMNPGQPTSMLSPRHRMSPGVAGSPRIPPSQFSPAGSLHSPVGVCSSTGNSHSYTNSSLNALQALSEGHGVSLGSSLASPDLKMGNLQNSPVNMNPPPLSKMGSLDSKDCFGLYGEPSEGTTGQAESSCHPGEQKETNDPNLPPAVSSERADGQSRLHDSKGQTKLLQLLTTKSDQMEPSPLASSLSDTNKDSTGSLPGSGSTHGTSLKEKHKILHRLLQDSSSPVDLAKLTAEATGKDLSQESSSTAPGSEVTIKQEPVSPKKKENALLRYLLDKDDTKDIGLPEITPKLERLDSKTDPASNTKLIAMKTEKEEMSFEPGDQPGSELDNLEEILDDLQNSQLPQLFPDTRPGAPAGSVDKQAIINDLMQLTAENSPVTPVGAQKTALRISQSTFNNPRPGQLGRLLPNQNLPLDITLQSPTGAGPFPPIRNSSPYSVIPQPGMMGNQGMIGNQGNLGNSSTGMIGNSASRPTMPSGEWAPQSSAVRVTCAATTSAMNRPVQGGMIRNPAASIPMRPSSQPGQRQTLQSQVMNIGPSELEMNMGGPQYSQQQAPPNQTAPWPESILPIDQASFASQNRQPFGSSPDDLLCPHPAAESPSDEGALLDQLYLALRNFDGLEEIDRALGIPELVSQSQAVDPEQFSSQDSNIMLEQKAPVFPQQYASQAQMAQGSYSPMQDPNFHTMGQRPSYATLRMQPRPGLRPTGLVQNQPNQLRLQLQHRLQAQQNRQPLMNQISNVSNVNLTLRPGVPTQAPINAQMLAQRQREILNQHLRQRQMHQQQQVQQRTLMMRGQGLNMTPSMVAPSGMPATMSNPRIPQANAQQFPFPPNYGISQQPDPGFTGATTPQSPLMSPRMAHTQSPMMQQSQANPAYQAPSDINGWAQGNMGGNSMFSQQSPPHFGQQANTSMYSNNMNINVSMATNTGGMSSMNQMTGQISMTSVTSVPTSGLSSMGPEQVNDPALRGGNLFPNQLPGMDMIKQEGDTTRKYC

For `CCC1CC(=Cc2cccnc2)C(=O)C(=Cc2cccnc2)C1` (stereo not drawn) [MCB-613, 4-Ethyl-2,6-bis-pyridin-3-ylmethylene-cyclohexanone], the “induction in the activity of pBIND-SRC-2” value (SRC-2) was no more than 160 fold, the “stimulation of GAL4-PGC-1α coactivator fusion protein” value (PGC-1α) was “failing to stimulate” and the “activity of GAL4-VP16 fusion protein” value (VP16) was “minimally increasing the activity”. The “SRC-3's coactivation of the MMP2 promoter” value (MMP2 promoter) was “greatly enhanced”, the “SRC-3's coactivation of the MMP13 promoter” value (MMP13 promoter) was “greatly enhanced” and the “cytotoxicity, cell viability” value (MCF-7 (breast) cells) was “efficiently kill”. For the same compound, the “cytotoxicity, cell viability” value (PC-3 (prostate) cells) was “efficiently kill”, the “cytotoxicity, cell viability” value (H1299 (lung) cells) was “efficiently kill” and the “cytotoxicity, cell viability” value (HepG2 (liver) cells) was “efficiently kill”. The “cytotoxicity to normal cells” value [1] was “resistant”, the “cytotoxicity to normal cells” value (MEF cells) was “resistant” and the animal toxicity ([2]; 7 weeks) was “did not lead to obvious animal toxicity”. The “body weights between control and treated groups” value ([2]; 7 weeks) was “identical”, the “tumor volumes versus controls” value ([2]; after one week of treatment and throughout) was “significantly smaller than controls” and the “viability of SRC-3 KO HeLa cells compared with WT cells” value (HeLa cells [3]) was “less affected”. For the same compound, the “vacuolization in cancer cells” value (HeLa cells [4]) was “induced extensive vacuolization”, the “endogenous MMP13 expression” value (MMP13 expression) was “activated” and the “activation of SRC-1 in the primary screen” value (SRC-1) was “greatest activation”.
